The values below are quoted from earlier work in publication PMC3345309 (Hepatology (Baltimore, Md.), 2012).

For data set [1], the system named is NS5A-augmented HCV IRES-mediated translation. The conditions noted are these: ref [18].
The subject of data set [2] is HCV Renilla reporter virus. Particulars: ref [18].

Turning to `O=c1c(O)c(-c2ccc(O)c(O)c2)oc2cc(O)cc(O)c12` [Quercetin], the “effect on NS5A-augmented IRES-mediated translation” value in data set [1] is reported as “blocked”. Moreover, the “effect on virus production” value in data set [2] was “blocked”.
